According to article PMC4468202, “Improved Visualization and Specific Binding for Metabotropic Glutamate Receptor Subtype 1 (mGluR1) Using [^11C]ITMM with Ultra-High Specific Activity in Small-Animal PET” (PLoS ONE, 2015):
“And” between values parts separate entries of the source, which are not always exact repeats. Equal values may be shown once.

Molecular target: mGluR1 (Rattus norvegicus, UniProt P23385)
Test: Two-tissue compartment model (2TCM) kinetic analysis of PET data
Type: in vivo
Design: from tissue; host or cells: living SD rat brain (in vivo PET)
Protocol: Kinetic analysis of [^11C]ITMM was performed using the two-tissue compartment model (2TCM). The compartments correspond to the radioactivity concentrations of unchanged radioprobe in the plasma (C P), free and non-specifically bound radioprobe (C 1), and radioprobe specifically bound to receptors (C 2). The rate constants K 1 and k 2 correspond to the influx and outflux rates of the radioprobe across the blood-brain barrier. The rate constants k 3 and k 4 correspond to the rates of radioprobe transfer between the C 1 and C 2 compartments. The blood volume fraction (vB) in the rat brain was fixed at 2% [28]. The four rate constants of the 2TCM were obtained by a nonlinear least squares fitting technique, using PMOD version 3.4 (PMOD Technologies).
The distribution of [^11C]ITMM in free or tissue compartments was described using the concept of free ligand distribution volume (DV f) or V T, which was defined by the following equations: DVf=K1/k2 (1) VT=DVf(1+k3/k4) (2)
The nondisplacable binding potential (BP ND) is defined using the index of specific bindings of the radioprobe, meaning the receptor density (B max) to binding affinity (K D) ratio, which corresponds with the ratio of k 3 to k 4 in the 2TCM [26]. The BP ND is defined as follows: BPND=fND⋅Bmax/KD=k3/k4 (3) Here, f ND represents the tissue-free fraction of radioprobe in the nondisplacable compartment. Although the fraction of radioprobe that is unbound to plasma proteins was not measured in the present study, the value of f ND is close to 1.0 [29].

[1] = cingulate cortex, conventional SA
[2] = cingulate cortex, ultra-high SA
[3] = substantia nigra, conventional SA
[4] = substantia nigra, ultra-high SA

Sequence of mGluR1 (P23385 19-1199): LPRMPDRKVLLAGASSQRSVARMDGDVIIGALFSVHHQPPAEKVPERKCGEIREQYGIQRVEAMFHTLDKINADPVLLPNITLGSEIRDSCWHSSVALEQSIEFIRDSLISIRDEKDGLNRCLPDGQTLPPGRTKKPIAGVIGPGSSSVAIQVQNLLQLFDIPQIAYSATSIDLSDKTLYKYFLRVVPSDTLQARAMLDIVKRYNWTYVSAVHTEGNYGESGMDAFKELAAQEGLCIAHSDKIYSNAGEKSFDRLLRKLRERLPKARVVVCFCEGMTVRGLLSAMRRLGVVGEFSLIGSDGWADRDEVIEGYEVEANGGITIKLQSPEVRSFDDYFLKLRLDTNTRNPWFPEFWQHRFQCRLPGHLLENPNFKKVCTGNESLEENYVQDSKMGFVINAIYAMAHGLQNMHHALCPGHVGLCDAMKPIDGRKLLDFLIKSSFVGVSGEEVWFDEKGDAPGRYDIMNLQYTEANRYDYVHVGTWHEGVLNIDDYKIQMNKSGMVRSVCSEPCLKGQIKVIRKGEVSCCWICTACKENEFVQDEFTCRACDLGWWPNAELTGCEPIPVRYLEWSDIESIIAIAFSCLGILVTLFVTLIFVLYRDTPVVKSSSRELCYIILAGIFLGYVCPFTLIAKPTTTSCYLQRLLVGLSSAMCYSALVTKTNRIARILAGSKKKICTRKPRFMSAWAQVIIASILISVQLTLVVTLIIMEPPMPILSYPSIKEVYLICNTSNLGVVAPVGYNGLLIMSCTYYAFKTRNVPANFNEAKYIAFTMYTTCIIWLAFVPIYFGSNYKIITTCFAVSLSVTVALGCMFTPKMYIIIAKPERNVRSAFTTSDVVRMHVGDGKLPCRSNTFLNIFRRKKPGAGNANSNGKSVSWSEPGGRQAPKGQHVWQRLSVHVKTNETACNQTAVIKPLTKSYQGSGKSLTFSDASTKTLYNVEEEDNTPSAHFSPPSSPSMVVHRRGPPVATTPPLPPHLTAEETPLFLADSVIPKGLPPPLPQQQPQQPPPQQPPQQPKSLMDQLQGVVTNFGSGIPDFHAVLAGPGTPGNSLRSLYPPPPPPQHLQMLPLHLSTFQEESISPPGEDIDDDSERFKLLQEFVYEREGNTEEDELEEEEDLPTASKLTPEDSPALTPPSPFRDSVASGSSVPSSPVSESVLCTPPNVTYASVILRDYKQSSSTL

## CC(C)Nc1cc(-c2csc(N(C)C(=O)c3ccc(O[11CH3])cc3)n2)ncn1 [[^11C]ITMM, N-[4-[6-(isopropylamino)pyrimidin-4-yl]-1,3-thiazol-2-yl]-4-[^11C]methoxy-N-methyl-benzamide]
cerebellum, conventional SA
  BP ND (k 3/k 4): 33.2 ± 1.4
  DV f (K 1/k 2): 0.429 ± 0.020
  K 1: 0.344 ± 0.010 mL/cm^3/min
  V T: 14.56 ± 0.50 mL/cm^3
  k 2: 0.811 ± 0.045 min⁻¹
  k 3: 0.619 ± 0.035 min⁻¹
  k 4: 0.019 ± 0.001 min⁻¹
cerebellum, ultra-high SA
  BP ND (k 3/k 4): 48.9 ± 2.6
  DV f (K 1/k 2): 0.336 ± 0.020
  K 1: 0.366 ± 0.019 mL/cm^3/min
  V T: 16.69 ± 0.92 mL/cm^3
  k 2: 1.112 ± 0.098 min⁻¹
  k 3: 0.799 ± 0.035 min⁻¹
  k 4: 0.016 ± 0.000 min⁻¹
[1]
  BP ND (k 3/k 4): 21.7 ± 1.2
  DV f (K 1/k 2): 0.302 ± 0.021
  K 1: 0.312 ± 0.008 mL/cm^3/min
  V T: 6.76 ± 0.25 mL/cm^3
  k 2: 1.062 ± 0.086 min⁻¹
  k 3: 0.643 ± 0.053 min⁻¹
  k 4: 0.030 ± 0.001 min⁻¹
[2]
  BP ND (k 3/k 4): 32.8 ± 1.9
  DV f (K 1/k 2): 0.257 ± 0.008
  K 1: 0.339 ± 0.019 mL/cm^3/min
  V T: 8.66 ± 0.45 mL/cm^3
  k 2: 1.317 ± 0.054 min⁻¹
  k 3: 0.740 ± 0.036 min⁻¹
  k 4: 0.023 ± 0.001 min⁻¹
hippocampus, conventional SA
  BP ND (k 3/k 4): 24.8 ± 1.8
  DV f (K 1/k 2): 0.292 ± 0.011
  K 1: 0.303 ± 0.015 mL/cm^3/min
  V T: 7.44 ± 0.27 mL/cm^3
  k 2: 1.052 ± 0.082 min⁻¹
  k 3: 0.644 ± 0.051 min⁻¹
  k 4: 0.026 ± 0.001 min⁻¹
hippocampus, ultra-high SA
  BP ND (k 3/k 4): 38.2 ± 1.5
  DV f (K 1/k 2): 0.228 ± 0.008
  K 1: 0.320 ± 0.020 mL/cm^3/min
  V T: 8.93 ± 0.47 mL/cm^3
  k 2: 1.415 ± 0.107 min⁻¹
  k 3: 0.784 ± 0.027 min⁻¹
  k 4: 0.021 ± 0.000 min⁻¹
pons, conventional SA
  BP ND (k 3/k 4): 8.3 ± 0.5
  DV f (K 1/k 2): 0.224 ± 0.011
  K 1: 0.271 ± 0.015 mL/cm^3/min
  V T: 2.06 ± 0.06 mL/cm^3
  k 2: 1.237 ± 0.122 min⁻¹
  k 3: 0.256 ± 0.022 min⁻¹
  k 4: 0.031 ± 0.001 min⁻¹
pons, ultra-high SA
  BP ND (k 3/k 4): 9.8 ± 0.5
  DV f (K 1/k 2): 0.221 ± 0.015
  K 1: 0.244 ± 0.004 mL/cm^3/min
  V T: 2.39 ± 0.23 mL/cm^3
  k 2: 1.131 ± 0.084 min⁻¹
  k 3: 0.253 ± 0.011 min⁻¹
  k 4: 0.026 ± 0.001 min⁻¹
striatum, conventional SA
  BP ND (k 3/k 4): 20.0 ± 1.1
  DV f (K 1/k 2): 0.367 ± 0.015
  K 1: 0.278 ± 0.014 mL/cm^3/min
  V T: 7.7 mL/cm^3 and 7.66 ± 0.28 mL/cm^3
  k 2: 0.769 ± 0.061 min⁻¹
  k 3: 0.612 ± 0.036 min⁻¹
  k 4: 0.031 ± 0.001 min⁻¹
striatum, ultra-high SA
  BP ND (k 3/k 4): 30.6 ± 1.8
  DV f (K 1/k 2): 0.311 ± 0.021
  K 1: 0.294 ± 0.014 mL/cm^3/min
  V T: 9.7 mL/cm^3 and 9.66 ± 0.41 mL/cm^3
  k 2: 0.972 ± 0.083 min⁻¹
  k 3: 0.722 ± 0.043 min⁻¹
  k 4: 0.024 ± 0.001 min⁻¹
[3]
  BP ND (k 3/k 4): 16.6 ± 1.6
  DV f (K 1/k 2): 0.378 ± 0.030
  K 1: 0.298 ± 0.021 mL/cm^3/min
  V T: 6.4 mL/cm^3 and 6.44 ± 0.22 mL/cm^3
  k 2: 0.840 ± 0.128 min⁻¹
  k 3: 0.470 ± 0.031 min⁻¹
  k 4: 0.029 ± 0.001 min⁻¹
[4]
  BP ND (k 3/k 4): 26.1 ± 2.0
  DV f (K 1/k 2): 0.321 ± 0.023
  K 1: 0.292 ± 0.012 mL/cm^3/min
  V T: 8.5 mL/cm^3 and 8.53 ± 0.47 mL/cm^3
  k 2: 0.933 ± 0.075 min⁻¹
  k 3: 0.602 ± 0.036 min⁻¹
  k 4: 0.023 ± 0.001 min⁻¹
thalamus, conventional SA
  BP ND (k 3/k 4): 25.5 ± 1.2
  DV f (K 1/k 2): 0.347 ± 0.018
  K 1: 0.303 ± 0.012 mL/cm^3/min
  V T: 9.1 mL/cm^3 and 9.12 ± 0.37 mL/cm^3
  k 2: 0.886 ± 0.064 min⁻¹
  k 3: 0.669 ± 0.033 min⁻¹
  k 4: 0.026 ± 0.001 min⁻¹
thalamus, ultra-high SA
  BP ND (k 3/k 4): 38.5 ± 1.1
  DV f (K 1/k 2): 0.284 ± 0.018
  K 1: 0.313 ± 0.016 mL/cm^3/min
  V T: 11.2 mL/cm^3 and 11.15 ± 0.51 mL/cm^3
  k 2: 1.125 ± 0.088 min⁻¹
  k 3: 0.817 ± 0.025 min⁻¹
  k 4: 0.021 ± 0.000 min⁻¹
